The values that follow come from ChEMBL document CHEMBL1136565, “5-Azidoepibatidine: an exceptionally potent photoaffinity ligand for neuronal alpha 4 beta 2 and alpha 7 nicotinic acetylcholine receptors” (Bioorg Med Chem Lett, 2003).

Each structure is given as a SMILES string.

Assay [1] has as its target Neuronal acetylcholine receptor subunit alpha-7 (Homo sapiens, UniProt P36544). The assay is described as follows: Binding affinity to alpha-7 receptor subtype from human neuroblastoma SH-SY5Y cells was measured using [125I]-alpha-bungarotoxin as radioligand. In kind it is cell-based.
A short description of assay [2]: Binding affinity to Drosophila nicotinic receptor was measured using [3H]imidacloprid as radioligand. On the set-up: species or system Drosophila melanogaster.
Assay [3] concerns the target Neuronal acetylcholine receptor; alpha4/beta2 (Homo sapiens, UniProt P17787+P43681). Description: Binding affinity to alpha4 beta-2 receptor subtype from mouse fibroblast M10 cells was measured using [3 H]nicotine. In kind it is cell-based.

Neuronal acetylcholine receptor subunit alpha-7, sequence (P36544 whole entry): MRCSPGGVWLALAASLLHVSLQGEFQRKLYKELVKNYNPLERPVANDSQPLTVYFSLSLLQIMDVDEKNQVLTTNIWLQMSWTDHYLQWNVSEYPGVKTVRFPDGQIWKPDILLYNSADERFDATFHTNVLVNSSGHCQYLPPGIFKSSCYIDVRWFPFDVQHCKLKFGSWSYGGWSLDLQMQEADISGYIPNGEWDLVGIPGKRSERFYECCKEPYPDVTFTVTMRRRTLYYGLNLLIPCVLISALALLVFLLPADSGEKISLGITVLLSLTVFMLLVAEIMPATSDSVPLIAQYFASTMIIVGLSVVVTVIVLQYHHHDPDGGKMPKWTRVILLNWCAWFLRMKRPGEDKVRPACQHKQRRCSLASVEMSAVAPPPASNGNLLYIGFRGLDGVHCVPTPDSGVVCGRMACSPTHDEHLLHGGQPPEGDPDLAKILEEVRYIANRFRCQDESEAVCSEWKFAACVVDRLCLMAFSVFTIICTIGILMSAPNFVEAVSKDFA
Neuronal acetylcholine receptor; alpha4/beta2, sequence (P17787 whole entry): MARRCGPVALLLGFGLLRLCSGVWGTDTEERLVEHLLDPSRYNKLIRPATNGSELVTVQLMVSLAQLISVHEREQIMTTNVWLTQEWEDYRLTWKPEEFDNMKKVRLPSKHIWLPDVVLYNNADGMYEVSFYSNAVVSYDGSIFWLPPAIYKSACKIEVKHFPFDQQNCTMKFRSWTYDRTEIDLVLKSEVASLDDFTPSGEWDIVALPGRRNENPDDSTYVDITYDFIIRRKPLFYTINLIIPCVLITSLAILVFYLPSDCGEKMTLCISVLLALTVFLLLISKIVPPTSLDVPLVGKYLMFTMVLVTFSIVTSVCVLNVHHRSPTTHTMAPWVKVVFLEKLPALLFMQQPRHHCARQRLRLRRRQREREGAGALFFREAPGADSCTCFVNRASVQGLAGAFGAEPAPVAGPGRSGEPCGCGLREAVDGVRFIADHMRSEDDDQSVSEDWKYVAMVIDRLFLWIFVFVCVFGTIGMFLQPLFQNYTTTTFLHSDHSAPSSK
Neuronal acetylcholine receptor; alpha4/beta2, sequence (P43681 whole entry): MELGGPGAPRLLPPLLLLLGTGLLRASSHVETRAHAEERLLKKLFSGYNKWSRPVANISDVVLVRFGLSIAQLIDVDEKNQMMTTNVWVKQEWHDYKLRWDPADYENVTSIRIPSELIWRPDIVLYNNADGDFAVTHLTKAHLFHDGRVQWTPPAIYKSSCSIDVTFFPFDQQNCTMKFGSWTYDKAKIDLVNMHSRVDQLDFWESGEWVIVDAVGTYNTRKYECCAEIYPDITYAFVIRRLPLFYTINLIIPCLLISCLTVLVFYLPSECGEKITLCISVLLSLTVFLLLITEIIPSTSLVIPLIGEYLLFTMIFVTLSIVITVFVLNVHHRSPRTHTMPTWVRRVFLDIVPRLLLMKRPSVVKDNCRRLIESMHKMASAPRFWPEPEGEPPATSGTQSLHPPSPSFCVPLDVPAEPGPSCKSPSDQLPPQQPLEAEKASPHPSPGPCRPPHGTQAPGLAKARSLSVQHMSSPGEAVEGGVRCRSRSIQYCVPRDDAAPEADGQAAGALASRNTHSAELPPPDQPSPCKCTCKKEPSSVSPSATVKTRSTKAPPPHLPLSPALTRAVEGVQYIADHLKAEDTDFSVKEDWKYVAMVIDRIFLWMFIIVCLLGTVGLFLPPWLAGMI

As to `[N-]=[N+]=Nc1cc(C2CC3CCC2N3)cnc1Cl` (stereo not given) [AZIDOEPIBATIDINE], the Ki turned out to be 9.7 nM in assay [1], 2100 nM in assay [2] and 0.027 nM in assay [3].
Take `Clc1ccc(C2CC3CCC2N3)cn1` (stereo not given) [EPIBATIDINE]: the inhibition constant Ki in assay [1] is 10.2 nM; in assay [2], 200 nM.

As a reminder, the Ki is the dissociation constant of the complex between target and ligand, obtained from inhibition or displacement.
